One data set has as its target T1, hGR (Homo sapiens, UniProt P04150).
T1 construct: expressed in transfected cells; host or cells: HEK 293T
T1 sequence (P04150 1-777): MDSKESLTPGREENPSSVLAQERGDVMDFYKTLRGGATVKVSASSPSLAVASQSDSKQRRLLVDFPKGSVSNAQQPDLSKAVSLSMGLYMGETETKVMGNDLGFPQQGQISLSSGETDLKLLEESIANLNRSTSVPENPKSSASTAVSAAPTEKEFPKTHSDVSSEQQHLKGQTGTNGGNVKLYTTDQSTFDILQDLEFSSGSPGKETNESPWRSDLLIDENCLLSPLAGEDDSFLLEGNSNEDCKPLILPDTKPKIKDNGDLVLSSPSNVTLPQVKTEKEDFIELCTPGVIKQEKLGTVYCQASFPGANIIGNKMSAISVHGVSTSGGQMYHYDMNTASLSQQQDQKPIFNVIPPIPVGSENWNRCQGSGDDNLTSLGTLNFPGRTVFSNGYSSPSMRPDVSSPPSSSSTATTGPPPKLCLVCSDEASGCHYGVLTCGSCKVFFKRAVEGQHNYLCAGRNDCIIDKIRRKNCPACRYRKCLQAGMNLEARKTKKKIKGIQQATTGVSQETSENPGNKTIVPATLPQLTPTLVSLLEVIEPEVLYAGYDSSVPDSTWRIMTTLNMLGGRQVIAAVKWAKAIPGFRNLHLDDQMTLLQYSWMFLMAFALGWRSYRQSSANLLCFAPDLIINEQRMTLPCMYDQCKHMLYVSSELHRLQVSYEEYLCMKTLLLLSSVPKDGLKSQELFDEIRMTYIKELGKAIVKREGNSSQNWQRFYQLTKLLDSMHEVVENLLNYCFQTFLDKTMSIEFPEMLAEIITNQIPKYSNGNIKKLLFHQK
Briefly: APRn selectivity: transactivation in HEK293T cells transiently expressing hGR. In kind it is cell-based. The settings on record: HEK293T transiently expressing hGR, mean±SEM. How it is done: Measurement of the APRn Selectivity in HEK 293T.
The HEK-293T cells were cultured and transfected according to the method described above for the PR transactivation assays. The expression vectors pcDNA-hAR, kindly provided by G. A. Coetzee, pchGR (Hellal-Levy, C et al. FEBS Lett 1999, 464, 9), and pchMR (Fagart, J. et al. EMBO J. 1998, 17, 3317) were used for studying the ability of APRn to activate or inactivate the AR, GR and MR, respectively. For each transfection assays, 2 μg of the expression vector was used together with 7 μg of the GRE2-Luc reporter vector. Dihydrotestosterone (DHT), dexamethasone (Dex) and Aldosterone (Aldo) were selected as AR, GR and MR ligands, respectively. They were used at the concentration of 10^−9 M. The APRn agonist and antagonist efficacy for AR, GR and MR were measured as described above for PR. The results are the mean±SEM of three independent experiments.
Transfection assays were performed in HEK 293T cells by using expression vectors for the hAR, hGR and hMR and the GRE2-Luc reporter used for the PR transactivation assays.

The next data set addresses T2, hPRB (Homo sapiens, UniProt P06401).
T2 sequence (P06401 1-933): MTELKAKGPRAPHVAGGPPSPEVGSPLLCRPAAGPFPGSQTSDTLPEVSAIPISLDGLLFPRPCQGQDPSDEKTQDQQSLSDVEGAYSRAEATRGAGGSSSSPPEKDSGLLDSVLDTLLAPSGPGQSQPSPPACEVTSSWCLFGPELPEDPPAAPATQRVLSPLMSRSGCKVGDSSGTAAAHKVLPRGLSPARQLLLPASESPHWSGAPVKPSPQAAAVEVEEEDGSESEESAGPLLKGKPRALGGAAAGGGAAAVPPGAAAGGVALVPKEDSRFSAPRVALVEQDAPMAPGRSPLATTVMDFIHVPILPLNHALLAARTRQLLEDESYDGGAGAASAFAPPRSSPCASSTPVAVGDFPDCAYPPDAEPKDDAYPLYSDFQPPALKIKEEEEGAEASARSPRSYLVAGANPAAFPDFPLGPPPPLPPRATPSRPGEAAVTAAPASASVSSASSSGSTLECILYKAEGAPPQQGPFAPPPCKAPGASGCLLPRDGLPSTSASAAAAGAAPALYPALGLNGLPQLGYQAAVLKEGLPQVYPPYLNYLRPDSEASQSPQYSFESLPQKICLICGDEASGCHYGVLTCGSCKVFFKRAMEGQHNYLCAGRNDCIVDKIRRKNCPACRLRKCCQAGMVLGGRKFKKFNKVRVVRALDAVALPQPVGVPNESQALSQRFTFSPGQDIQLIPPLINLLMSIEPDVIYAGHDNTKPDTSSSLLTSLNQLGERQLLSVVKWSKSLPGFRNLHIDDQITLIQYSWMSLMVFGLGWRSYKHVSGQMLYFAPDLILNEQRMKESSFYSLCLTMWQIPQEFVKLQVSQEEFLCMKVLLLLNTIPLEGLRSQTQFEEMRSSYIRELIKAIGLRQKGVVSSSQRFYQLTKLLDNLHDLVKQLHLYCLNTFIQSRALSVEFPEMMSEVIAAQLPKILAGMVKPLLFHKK
Description: PR transactivation assay (GRE2-Luc) in HEK293T cells transiently expressing hPRB. It is filed as cell-based. On the set-up: expressed in transfected cells; host or cells: HEK 293T. The settings on record: APRn 1 μM. How it is done:
PR Transactivation Assays in HEK 293T.
HEK 293T cells were routinely cultured in a high-glucose DMEM medium (Invitrogene, Cergy Pontoise, France), 20 mM HEPES, 2 mM glutamine, 1× non essential amino acids, 100 U/mL penicillin and 100 μg/mL streptomycin supplemented with 10% foetal calf serum (FCS) in a humidified atmosphere at 37° C. and with 5% CO2. One day before transfection, the cells were seeded at 3×10^6 cells/[…] diameter culture Petri dish and cultured overnight in the same medium. Six hours before transfection, the FCS supplemented medium was replaced by the same medium supplemented with 10% dextran-charcoal treated FCS. Transfections were carried out using the calcium phosphate precipitation method. The calcium phosphate precipitate was prepared with 0.5 μg pchPRB (Petit-Topin, et al Mol Pharmacol, 2009, 75, 1317), 7 μg reporter vector (GRE2-Luc from A. Biola-Vidamment and M. Pallardy) and 1 μg of pcβgal for an internal transfection control, in 1 mL 140 mM NaCl, 0.75 mM Na2HPO4, 25 mM HEPES, 125 mM CaCl2 pH 7.05 and added to the cells 30 minutes later. After 16 h incubation, the transfected cells were washed with PBS containing 2.5 mM EDTA, trypsinized and pooled. The transfected cells were replated in 24-well plates (100.000 transfected cells/well). […] Cells were lysed in 300 μl PBS 1×, 25 mM glycylglycine, 4 mM EDTA, 15% glycerol, 1% triton X-100, 15 mM MgSO4, pH 7.8 supplemented with 2 mM β-mercaptoethanol. The luciferase activities were quantified by using a Mithras LB940 reader microplates (Berthold).
The APRn “agonist efficacy” was determined from the following formula:
Agonist efficacy=[luciferase activity]1/[luciferase activity]2×100
The APRn “antagonist efficacy” was calculated from the following formula:
Antagonist efficacy=100−[luciferase activity]1/[luciferase activity]2×100
The results are the mean±SEM of three to five independent experiments.
All the synthesized APRn were classified in 4 series depending on the nature of their C3 substituent (R1/R′1 groups). The first one (series 1) includes APRn with no C3 substituent (R1═R′1═H) whereas series 2, 3 and 4 are related to APRn bearing a methoxyl (R1═OMe), a hydroxyl (R1═OH) and a fluorine atom (R1═F), respectively. The agonist/antagonist activities of APRn were determined either in human HEK293T cells transiently expressing hPRB or in human MDA-MB-231 iPRAB cells conditionally expressing hPRB, by using a luciferase reporter gene placed under the control of a glucocorticoid response element (GRE2-Luc). The APRn “agonist efficacy” was determined from the luciferase activity measured in the presence of APRn (1 μM). […] The “agonist efficacy” and “antagonist efficacy” are expressed as defined in the biological protocols section.

Setting [1] is: series 2-4, stated for both HEK293T and MDA-MB-231 iPRAB cells, FIGS. 3-8.
[2] abbreviates: series 1 (no C3 substituent), HEK293T, FIG. 1.

Entries after “also recorded” stand apart in the source; their conditions may differ.

From US20130203718A1 (priority 2010, published 2013) come the findings set out here.

Broadly, the melting point is the temperature, or range, at which the solid turns liquid. On to `C#C[C@]1(O)CCC2C3CC=C4C[C@@H](F)CC[C@@H]4C3CC[C@@]21C` (stereo partly drawn) [APR-50, 17α-Ethynyl-3β-fluoro-19-nor-androst-5-en-17β-ol], for which the melting point was 149 to 150 °C. In addition, the “GR Antagonist efficacy (%)” value at hGR (dexamethasone 10^−9 M) is given as 7.4 ± 1.9%. Further, the Emax on hGR (HEK-293T, read-out: GR Agonist efficacy (%)) was found to be 0.25 ± 0.1%.

For the compound `C[C@]12CC[C@H](F)C[C@@H]1CC[C@@H]1[C@@H]2CC[C@]2(C)C(=O)CC[C@@H]12` [APR-35, 3β-Fluoro-5α-androstan-17-one], the melting point was in the range of 126 to 127 °C. Moreover, the “hPRB agonist/antagonist character (in words)” value on hPRB (setting [1]) was “efficient hPRB antagonists”.

For the compound `C#C[C@]1(O)CCC2C3CC[C@H]4C[C@@H](F)CC[C@]4(C)C3CC[C@@]21C` (stereo partly drawn) [APR-36, 17α-Ethynyl-3β-fluoro-5α-androstan-17β-ol], the melting point lay within 225 to 226 °C. In addition, the “hPRB agonist/antagonist character (in words)” value on hPRB (setting [1]) is reported as “efficient hPRB antagonists”.

As to `C#C[C@]1(O)CCC2C3CC=C4C[C@@H](F)CC[C@]4(C)C3CC[C@@]21C` (stereo partly drawn) [APR-34, 17α-Ethynyl-3β-fluoro-androst-5-en-17β-ol], the melting point lay within 219 to 220 °C. For the same compound, the “hPRB agonist/antagonist character (in words)” value on hPRB (setting [1]) is recorded as “efficient hPRB antagonists”.

On to `C#C[C@]1(O)CCC2C3CC[C@H]4CCCC[C@]4(C)C3CC[C@@]21C` (stereo partly drawn) [APR-32, 17α-Ethynyl-5α-androstan-17β-ol], for which the melting point lay in the range of 152 to 153 °C. The “hPRB agonist/antagonist character (in words)” value at hPRB (setting [2]) is “full antagonists”.

Compound `C[C@H](O)[C@H]1CCC2C3CC=C4C=CCC[C@]4(C)C3CC[C@@]21C` (stereo partly drawn) [APR-11, pregn-3,5-dien-20-ol] showed a melting point of 103 to 104 °C. Also, on hPRB (setting [2]), the “hPRB agonist/antagonist character (in words)” value is “full antagonists”.

Consider `CC(=O)O[C@H]1CCC2C3CC=C4C[C@@H](F)CC[C@@H]4C3CC[C@@]21C` (stereo partly drawn) [APR-45, 17β-Acetoxy-3β-fluoro-19-nor-androst-5-ene], for which the melting point is 104 to 105 °C. Also, the “hPRB agonist/antagonist character (in words)” value at hPRB (setting [1]) is recorded as “efficient hPRB antagonists”.

`C#CC(C)(O)[C@H]1CC[C@H]2[C@@H]3CC=C4C[C@@H](OC)CC[C@]4(C)[C@H]3CC[C@]12C` (stereo partly drawn) [APR-31, 20-Ethynyl-3β-methoxypregn-5-en-20-ol] gave a melting point of 175 to 176 °C. Besides, the “hPRB agonist/antagonist character (in words)” value on hPRB (setting [1]) is “antagonist character without any agonist activity”.

As to `CO[C@H]1CC[C@@]2(C)C(=CC[C@H]3[C@@H]4CC[C@H](C(C)O)[C@@]4(C)CC[C@@H]32)C1` (mixture of isomers) [APR-27, 3β-Methoxypregn-5-en-20-ol], the melting point lay in the range of 124 to 125 °C. Moreover, the “hPRB agonist/antagonist character (in words)” value on hPRB (setting [1]) is given as “antagonist character without any agonist activity”.

The compound `CO[C@H]1CC[C@@]2(C)[C@@H](CC[C@@H]3[C@@H]2CC[C@]2(C)[C@@H](C(C)=O)CC[C@@H]32)C1` [APR-22, 3β-Methoxy-5α-pregnan-20-one] displayed a melting point of 125 to 126 °C. In addition, the “hPRB agonist/antagonist character (in words)” value at hPRB (setting [1]) is on record as “antagonist character without any agonist activity; also recorded: most potent molecules”.
